# Counter-ions that a name gives are not always drawn.
# Assays:
# [1] = tested on: DOK; experiment: cells; assay type: functional, cell-based, Homo sapiens;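 also: cell viability assay read-out, values reflect inhibition of cell growth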
# Description: SANGER: Inhibition of human DOK cell growth in a cell viability assay.
# [2] = tested on: Daoy; experiment: cells; assay type: functional, cell-based, Homo sapiens;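 also: daoy cell growth inhibition, read out as cell viability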
# Description: SANGER: Inhibition of human Daoy cell growth in a cell viability assay.
# [3] = tested on: EB2; experiment: cells; assay type: functional, cell-based, Homo sapiens;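 also: growth inhibition of EB2 cells, read out with a cell viability assay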
# Description: SANGER: Inhibition of human EB2 cell growth in a cell viability assay.
# [4] = tested on: HCC1569; experiment: cells; assay type: functional, cell-based, Homo sapiens;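 also: growth inhibition of human HCC1569 cells, read out with a cell viability assay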
# Description: SANGER: Inhibition of human HCC1569 cell growth in a cell viability assay.
# [5] = tested on: HCC1599; experiment: cells; assay type: functional, cell-based, Homo sapiens;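 also: growth inhibition of HCC1599 cells, read out in a cell viability assay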
# Description: SANGER: Inhibition of human HCC1599 cell growth in a cell viability assay.
# [6] = tested on: HCC1937; experiment: cells; assay type: functional, cell-based, Homo sapiens;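 also: growth inhibition measured with a cell viability read-out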
# Description: SANGER: Inhibition of human HCC1937 cell growth in a cell viability assay.
# [7] = tested on: HCC38; experiment: cells; assay type: functional, cell-based, Homo sapiens;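 also: cell viability assay on the human HCC38 cell line, with IC50 marking the concentration that inhibits cell growth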
# Description: SANGER: Inhibition of human HCC38 cell growth in a cell viability assay.
# [8] = tested on: HN; experiment: cells; assay type: functional, cell-based, Homo sapiens
# Description: SANGER: Inhibition of human HN cell growth in a cell viability assay.
# [9] = tested on: HOP-92; experiment: cells; assay type: functional, cell-based, Homo sapiens;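 also: cell viability readout, with IC50 reflecting inhibition of HOP-92 cell growth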
# Description: SANGER: Inhibition of human HOP-92 cell growth in a cell viability assay.
# [10] = tested on: HT-1376; experiment: cells; assay type: functional, cell-based, Homo sapiens
# Description: SANGER: Inhibition of human HT-1376 cell growth in a cell viability assay.
# [11] = tested on: HT-29; experiment: cells; assay type: functional, cell-based, Homo sapiens;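 also: growth inhibition of human HT-29 cells, read out by a cell viability assay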
# Description: SANGER: Inhibition of human HT-29 cell growth in a cell viability assay.
# [12] = tested on: KMS-12-PE; experiment: cells; assay type: functional, cell-based, Homo sapiens;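 also: growth inhibition of human KMS-12-PE cells, measured with a cell viability assay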
# Description: SANGER: Inhibition of human KMS-12-PE cell growth in a cell viability assay.
# [13] = tested on: KP-4; experiment: cells; assay type: functional, cell-based, Homo sapiens;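 also: human KP-4 cells, with growth inhibition read out through a cell viability assay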
# Description: SANGER: Inhibition of human KP-4 cell growth in a cell viability assay.
# [14] = tested on: KP-N-YN; experiment: cells; assay type: functional, cell-based, Homo sapiens;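 also: growth inhibition of KP-N-YN cells, read out with a cell viability assay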
# Description: SANGER: Inhibition of human KP-N-YN cell growth in a cell viability assay.
# [15] = tested on: KYSE-510; experiment: cells; assay type: functional, cell-based, Homo sapiens;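 also: cell viability readout used to measure how strongly growth of the cell line is suppressed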
# Description: SANGER: Inhibition of human KYSE-510 cell growth in a cell viability assay.
# [16] = tested on: LCLC-97TM1; experiment: cells; assay type: functional, cell-based, Homo sapiens;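 also: cell viability assay measuring growth inhibition of human LCLC-97TM1 cells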
# Description: SANGER: Inhibition of human LCLC-97TM1 cell growth in a cell viability assay.
# [17] = tested on: LN-405; experiment: cells; assay type: functional, cell-based, Homo sapiens
# Description: SANGER: Inhibition of human LN-405 cell growth in a cell viability assay.
# [18] = tested on: NCI-H187; experiment: cells; assay type: functional, cell-based, Homo sapiens;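 also: growth inhibition of NCI-H187 cells, read out as cell viability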
# Description: SANGER: Inhibition of human NCI-H187 cell growth in a cell viability assay.
# [19] = tested on: NCI-H2030; experiment: cells; assay type: functional, cell-based, Homo sapiens;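 also: growth inhibition of human NCI-H2030 cells, read out by a cell viability assay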
# Description: SANGER: Inhibition of human NCI-H2030 cell growth in a cell viability assay.
# [20] = tested on: NCI-H2196; experiment: cells; assay type: functional, cell-based, Homo sapiens;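 also: cell viability assay used as the readout of growth inhibition in NCI-H2196 cells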
# Description: SANGER: Inhibition of human NCI-H2196 cell growth in a cell viability assay.
# [21] = tested on: NCI-H345; experiment: cells; assay type: functional, cell-based, Homo sapiens;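 also: growth inhibition of NCI-H345 cells measured with a cell viability assay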
# Description: SANGER: Inhibition of human NCI-H345 cell growth in a cell viability assay.
# [22] = tested on: NCI-H522; experiment: cells; assay type: functional, cell-based, Homo sapiens;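 also: cell viability assay measuring growth inhibition of human NCI-H522 cells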
# Description: SANGER: Inhibition of human NCI-H522 cell growth in a cell viability assay.
# [23] = tested on: NCI-H889; experiment: cells; assay type: functional, cell-based, Homo sapiens;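 also: cell growth inhibition of the cell line, read out with a viability assay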
# Description: SANGER: Inhibition of human NCI-H889 cell growth in a cell viability assay.
# [24] = tested on: OVCAR-5; experiment: cells; assay type: functional, cell-based, Homo sapiens;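 also: growth inhibition of human OVCAR-5 cells, read out with a cell viability assay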
# Description: SANGER: Inhibition of human OVCAR-5 cell growth in a cell viability assay.
# [25] = tested on: PC-3; experiment: cells; assay type: functional, cell-based, Homo sapiens;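 also: cell viability assay measuring growth inhibition of PC-3 cells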
# Description: SANGER: Inhibition of human PC-3 cell growth in a cell viability assay.
# [26] = tested on: RD; experiment: cells; assay type: functional, cell-based, Homo sapiens
# Description: SANGER: Inhibition of human RD cell growth in a cell viability assay.
# [27] = tested on: RL; experiment: cells; assay type: functional, cell-based, Homo sapiens
# Description: SANGER: Inhibition of human RL cell growth in a cell viability assay.
# [28] = tested on: S-117; experiment: cells; assay type: functional, cell-based, Homo sapiens
# Description: SANGER: Inhibition of human S-117 cell growth in a cell viability assay.
# [29] = tested on: SJRH30; experiment: cells; assay type: functional, cell-based, Homo sapiens;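 also: growth inhibition of human SJRH30 cells, read out with a cell viability assay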
# Description: SANGER: Inhibition of human SJRH30 cell growth in a cell viability assay.
# [30] = tested on: SK-MES-1; experiment: cells; assay type: functional, cell-based, Homo sapiens;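 also: growth inhibition of human SK-MES-1 cells, read out with a cell viability assay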
# Description: SANGER: Inhibition of human SK-MES-1 cell growth in a cell viability assay.
# [31] = tested on: SK-MM-2; experiment: cells; assay type: functional, cell-based, Homo sapiens;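 also: growth inhibition of human SK-MM-2 cells, read out with a cell viability assay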
# Description: SANGER: Inhibition of human SK-MM-2 cell growth in a cell viability assay.
# [32] = tested on: SK-OV-3; experiment: cells; assay type: functional, cell-based, Homo sapiens;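 also: growth inhibition of SK-OV-3 human cells, read out with a cell viability assay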
# Description: SANGER: Inhibition of human SK-OV-3 cell growth in a cell viability assay.
# [33] = tested on: SKG-IIIa; experiment: cells; assay type: functional, cell-based, Homo sapiens;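 also: cell growth inhibition, read out with a cell viability assay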
# Description: SANGER: Inhibition of human SKG-IIIa cell growth in a cell viability assay.
# [34] = tested on: SN12C; experiment: cells; assay type: functional, cell-based, Homo sapiens;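 also: growth inhibition of human SN12C cells, measured by a cell viability assay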
# Description: SANGER: Inhibition of human SN12C cell growth in a cell viability assay.
# [35] = tested on: SW13; experiment: cells; assay type: functional, cell-based, Homo sapiens;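 also: IC50 is inhibition of SW13 cell growth, read out with a cell viability assay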
# Description: SANGER: Inhibition of human SW13 cell growth in a cell viability assay.
# [36] = tested on: SW1783; experiment: cells; assay type: functional, cell-based, Homo sapiens
# Description: SANGER: Inhibition of human SW1783 cell growth in a cell viability assay.
# [37] = tested on: SW1990; experiment: cells; assay type: functional, cell-based, Homo sapiens
# Description: SANGER: Inhibition of human SW1990 cell growth in a cell viability assay.
# [38] = tested on: SW780; experiment: cells; assay type: functional, cell-based, Homo sapiens;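 also: growth inhibition of the cells, read out with a cell viability assay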
# Description: SANGER: Inhibition of human SW780 cell growth in a cell viability assay.
# [39] = tested on: T47D; experiment: cells; assay type: functional, cell-based, Homo sapiens;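 also: growth inhibition of human T47D cells, measured with a cell viability assay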
# Description: SANGER: Inhibition of human T47D cell growth in a cell viability assay.
# [40] = tested on: 23132-87; experiment: cells; assay type: functional, cell-based, Homo sapiens
# Description: SANGER: Inhibition of human 23132-87 cell growth in a cell viability assay.
# [41] = tested on: A 172; experiment: cells; assay type: functional, cell-based, Homo sapiens;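 also: growth inhibition of A172 cells, measured with a cell viability readout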
# Description: SANGER: Inhibition of human A172 cell growth in a cell viability assay.
# [42] = tested on: A-431; experiment: cells; assay type: functional, cell-based, Homo sapiens;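 also: growth inhibition of A-431 cells, determined with a cell viability read-out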
# Description: SANGER: Inhibition of human A431 cell growth in a cell viability assay.
# [43] = tested on: BC1 cell line; experiment: SANGER: Inhibition of human BC-1 cell growth in a cell viability assay.; assay type: functional, cell-based
# [44] = tested on: BC-3; experiment: cells; assay type: functional, cell-based, Homo sapiens;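 also: cell viability assay measuring growth inhibition of human BC-3 cells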
# Description: SANGER: Inhibition of human BC-3 cell growth in a cell viability assay.
# [45] = tested on: BEN; experiment: cells; assay type: functional, cell-based, Homo sapiens;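 also: growth inhibition of the BEN cell line, read out with a cell viability assay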
# Description: SANGER: Inhibition of human BEN cell growth in a cell viability assay.
# [46] = tested on: C-33-A; experiment: cells; assay type: functional, cell-based, Homo sapiens;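 also: cell viability assay measuring growth inhibition of C-33-A cells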
# Description: SANGER: Inhibition of human C-33-A cell growth in a cell viability assay.
# [47] = tested on: UO-31; experiment: cells; assay type: functional, cell-based, Homo sapiens
# Description: SANGER: Inhibition of human U031 cell growth in a cell viability assay.
compound,measurement,setting,value
O=C(O)c1ccc(-c2c[nH]c3ncc(-c4ccccc4)cc23)cc1C1CCCC1 [GSK-650394],IC50,"[1]; Homo sapiens, DOK",> 16 µM
same,IC50,"[2]; Homo sapiens, Daoy",0.515 µM
same,IC50,"[3]; Homo sapiens, EB2",> 16 µM
same,IC50,"[4]; Homo sapiens, HCC1569",> 16 µM
same,IC50,"[5]; Homo sapiens, HCC1599",> 16 µM
same,IC50,"[6]; Homo sapiens, HCC1937",> 16 µM
same,IC50,"[7]; Homo sapiens, HCC38",> 16 µM
same,IC50,"[8]; Homo sapiens, HN",> 16 µM
same,IC50,"[9]; Homo sapiens, HOP-92",> 16 µM
same,IC50,"[10]; Homo sapiens, HT-1376",> 16 µM
same,IC50,"[11]; Homo sapiens, HT-29",7.27 µM
same,IC50,"[12]; Homo sapiens, KMS-12-PE",> 16 µM
same,IC50,"[13]; Homo sapiens, KP-4",5.19 µM
same,IC50,"[14]; Homo sapiens, KP-N-YN",15.8 µM
same,IC50,"[15]; Homo sapiens, KYSE-510",2.13 µM
same,IC50,"[16]; Homo sapiens, LCLC-97TM1",1.37 µM
same,IC50,"[17]; Homo sapiens, LN-405",> 16 µM
same,IC50,"[18]; Homo sapiens, NCI-H187",> 16 µM
same,IC50,"[19]; Homo sapiens, NCI-H2030",> 16 µM
same,IC50,"[20]; Homo sapiens, NCI-H2196",> 16 µM
same,IC50,"[21]; Homo sapiens, NCI-H345",> 16 µM
same,IC50,"[22]; Homo sapiens, NCI-H522",13 µM
same,IC50,"[23]; Homo sapiens, NCI-H889",> 16 µM
same,IC50,"[24]; Homo sapiens, OVCAR-5",> 16 µM
same,IC50,"[25]; Homo sapiens, PC-3",> 16 µM
same,IC50,"[26]; Homo sapiens, RD",> 16 µM
same,IC50,"[27]; Homo sapiens, RL",> 16 µM
same,IC50,"[28]; Homo sapiens, S-117",> 16 µM
same,IC50,"[29]; Homo sapiens, SJRH30",> 16 µM
same,IC50,"[30]; Homo sapiens, SK-MES-1",16 µM
same,IC50,"[31]; Homo sapiens, SK-MM-2",> 16 µM
same,IC50,"[32]; Homo sapiens, SK-OV-3",> 16 µM
same,IC50,"[33]; Homo sapiens, SKG-IIIa",> 16 µM
same,IC50,"[34]; Homo sapiens, SN12C",> 16 µM
same,IC50,"[35]; Homo sapiens, SW13",> 16 µM
same,IC50,"[36]; Homo sapiens, SW1783",> 16 µM
same,IC50,"[37]; Homo sapiens, SW1990",> 16 µM
same,IC50,"[38]; Homo sapiens, SW780",> 16 µM
same,IC50,"[39]; Homo sapiens, T47D",> 16 µM
same,IC50,[40]; Homo sapiens,10.3 µM
same,IC50,"[41]; Homo sapiens, A 172",> 16 µM
same,IC50,"[42]; Homo sapiens, A-431",1.86 µM
same,IC50,"[43]; Homo sapiens, BC1",2.52 µM
same,IC50,"[44]; Homo sapiens, BC-3",1.87 µM
same,IC50,"[45]; Homo sapiens, BEN",> 16 µM
same,IC50,"[46]; Homo sapiens, C-33-A",8.53 µM
same,IC50,"[47]; Homo sapiens, UO-31",> 16 µM
COC1=CC(c2cc3ccccc3[nH]2)=N/C1=C\c1[nH]c(C)cc1C [OBATOCLAX MESYLATE],IC50,"[1]; Homo sapiens, DOK",0.848 µM
same,IC50,"[2]; Homo sapiens, Daoy",0.0562 µM
same,IC50,"[3]; Homo sapiens, EB2",< 0.0625 µM
same,IC50,"[4]; Homo sapiens, HCC1569",0.018 µM
same,IC50,"[5]; Homo sapiens, HCC1599",0.5 µM
same,IC50,"[6]; Homo sapiens, HCC1937",0.464 µM
same,IC50,"[7]; Homo sapiens, HCC38",2.38 µM
same,IC50,"[8]; Homo sapiens, HN",< 0.0625 µM
same,IC50,"[9]; Homo sapiens, HOP-92",0.368 µM
same,IC50,"[10]; Homo sapiens, HT-1376",0.127 µM
same,IC50,"[11]; Homo sapiens, HT-29",0.0449 µM
same,IC50,"[12]; Homo sapiens, KMS-12-PE",5.35 µM
same,IC50,"[13]; Homo sapiens, KP-4",0.696 µM
same,IC50,"[14]; Homo sapiens, KP-N-YN",> 16 µM
same,IC50,"[15]; Homo sapiens, KYSE-510",< 0.0625 µM
same,IC50,"[16]; Homo sapiens, LCLC-97TM1",0.0559 µM
same,IC50,"[17]; Homo sapiens, LN-405",1.39 µM
same,IC50,"[18]; Homo sapiens, NCI-H187",5.93 µM
same,IC50,"[19]; Homo sapiens, NCI-H2030",0.227 µM
same,IC50,"[20]; Homo sapiens, NCI-H2196",3.35 µM
same,IC50,"[21]; Homo sapiens, NCI-H345",> 16 µM
same,IC50,"[22]; Homo sapiens, NCI-H522",0.181 µM
same,IC50,"[23]; Homo sapiens, NCI-H889",> 16 µM
same,IC50,"[24]; Homo sapiens, OVCAR-5",0.311 µM
same,IC50,"[25]; Homo sapiens, PC-3",1.75 µM
same,IC50,"[26]; Homo sapiens, RD",0.14 µM
same,IC50,"[27]; Homo sapiens, RL",> 16 µM
same,IC50,"[28]; Homo sapiens, S-117",0.0291 µM
same,IC50,"[29]; Homo sapiens, SJRH30",0.321 µM
same,IC50,"[30]; Homo sapiens, SK-MES-1",0.129 µM
same,IC50,"[31]; Homo sapiens, SK-MM-2",0.577 µM
same,IC50,"[32]; Homo sapiens, SK-OV-3",0.524 µM
same,IC50,"[33]; Homo sapiens, SKG-IIIa",4.68 µM
same,IC50,"[34]; Homo sapiens, SN12C",0.886 µM
same,IC50,"[35]; Homo sapiens, SW13",0.406 µM
same,IC50,"[36]; Homo sapiens, SW1783",0.193 µM
same,IC50,"[37]; Homo sapiens, SW1990",0.239 µM
same,IC50,"[38]; Homo sapiens, SW780",1.09 µM
same,IC50,"[39]; Homo sapiens, T47D",1.24 µM
same,IC50,[40]; Homo sapiens,0.828 µM
same,IC50,"[41]; Homo sapiens, A 172",0.887 µM
same,IC50,"[42]; Homo sapiens, A-431",0.088 µM
same,IC50,"[43]; Homo sapiens, BC1",0.0602 µM
same,IC50,"[44]; Homo sapiens, BC-3",2.37 µM
same,IC50,"[45]; Homo sapiens, BEN",1.07 µM
same,IC50,"[46]; Homo sapiens, C-33-A",< 0.0625 µM
same,IC50,"[47]; Homo sapiens, UO-31",0.814 µM
BLEOMYCIN,IC50,[1]; dok,322 µM
same,IC50,[2]; daoy,0.083 µM
same,IC50,[3]; eb2,0.691 µM
same,IC50,[4]; hcc1569,0.604 µM
same,IC50,[5]; hcc1599,3.37 µM
same,IC50,[6]; hcc1937,0.000254 µM
same,IC50,[7]; hcc38,0.0312 µM
same,IC50,[8]; hn,29.1 µM
same,IC50,[9]; hop-92,9.26 µM
same,IC50,[10]; ht-1376,9.74 µM
same,IC50,[11]; ht-29,0.535 µM
same,IC50,[12]; kms-12-pe,2530 µM
same,IC50,[13]; kp-4,2.17 µM
same,IC50,[14]; kp-n-yn,26.3 µM
same,IC50,[15]; kyse-510,1.86 µM
same,IC50,[16]; lclc-97tm1,1.5 µM
same,IC50,[17]; ln-405,402 µM
same,IC50,[18]; nci-h187,8790 µM
same,IC50,[19]; nci-h2030,5.22 µM
same,IC50,[20]; nci-h2196,22.8 µM
same,IC50,[21]; nci-h345,814 µM
same,IC50,[22]; nci-h522,0.426 µM
same,IC50,[23]; nci-h889,513 µM
same,IC50,[24]; ovcar-5,4.75 µM
same,IC50,[25]; pc-3,13.3 µM
same,IC50,[26]; rd,106 µM
same,IC50,[27]; rl,2270 µM
same,IC50,[28]; s-117,90.2 µM
same,IC50,[29]; sjrh30,0.414 µM
same,IC50,[30]; sk-mes-1,3.07 µM
same,IC50,[31]; sk-mm-2,23.2 µM
same,IC50,[32]; sk-ov-3,4.88 µM
same,IC50,[33]; skg-iiia,136 µM
same,IC50,[34]; sn12c,315 µM
same,IC50,[35]; sw13,0.0816 µM
same,IC50,[36]; sw1783,0.249 µM
same,IC50,[37]; sw1990,4.24 µM
same,IC50,[38]; sw780,8140 µM
same,IC50,[39]; t47d,168 µM
same,IC50,[40],0.131 µM
same,IC50,[41]; a 172,39.7 µM
same,IC50,[42]; a-431,2.11 µM
same,IC50,[43]; bc1,3.92 µM
same,IC50,[44]; bc-3,0.521 µM
same,IC50,[45]; ben,46 µM
same,IC50,[46]; c-33-a,0.432 µM
same,IC50,[47]; uo-31,0.934 µM
